Assay [1] has as its target Cdc42 (Mus musculus, UniProt P60766). The experiment in a line: Example 7 effector pull-down in LDBM and HCB cells, Cdc42. Format: cell-based, murine LDBM and human HCB cells. The arrangement: endogenous in cells; host or cells: murine LDBM cells and human CD34+ HCB cells. The protocol:
To exclude the inhibitory effect of CASIN on other Rac isoforms, Rho GTPases, and Ras, broader effector pull-down experiments are performed on these possible candidates with gradient doses of CASIN in LDBM and HCB cells as previously described. In addition, CASIN has been indicated as a noncovalent and reversible inhibitor in Xenopus egg extract. To confirm it, reversibility is monitored in this set of effector pull-down experiments. Four treatment groups are divided for both LDBM and HCB cells: (1) Serum starvation 20 h; (2) Serum starvation 20 h+growth factors stimulation; (3) Serum starvation 20 h+CASIN treatment (doses: 1, 2.5, 5, and 10 μM) 3 h+growth factor stimulation; (4) Serum starvation 20 h+CASIN treatment (doses: 1, 2.5, 5, and 10 μM) 3 h+wash the cells, and culture for another 3 h for recovery+growth factors stimulation. […] Bound proteins are analyzed by immunoblotting with respective antibodies (BD Biosciences). Furthermore, changes of downstream targets of Cdc42, Rac, and Rho under the four treatment groups are assessed. Phosphorylation status of PAK1, WASP (effectors of Cdc42), WAVE (effector of Rac), and ROCK (effector of Rho) are monitored by western blots using respective antibodies.

Assay [2] relates to LDBM cells. Briefly: CFU-migration assay of LDBM progenitors towards SDF-1α. Format: cell-based, murine. The text has this:
To shed light on potential roles of CASIN in HSPC mobilization, the effects of CASIN on Cdc42-related cellular functions was studied, including adhesion, migration, and F-actin polymerization of progenitor cells in 32D myeloid progenitors. […] SDF-1α stimulation causes a reorganization of F-actin into a cortical ring around the cells. […] Thirdly, to gain further insight into cellular specificity and efficacy of CASIN, and also to rule out possible toxic effects by CASIN, Cdc42-involved BM progenitor cell functions were examined, including proliferation, adhesion, migration, and F-actin polymerization, in Cdc42^+/+ cells in parallel with Cdc42^−/− cells. In line with additional studies in a Cdc42 conditional knockout mouse model as described herein, Cdc42^−/− LDBM cells have increased CFU-forming progenitors compared to those of Cdc42^+/+.
Murine LDBM cells from Cdc42^+/+ as well as Cdc42^−/− mice were used for CFU-adhesion/migration experiments as described previously. Briefly, for adhesion experiment, in the presence or absence of prior CASIN treatment at doses of 5 and 10 μM, 10^5 cells were plated onto each well of 48-well plates pre-coated with fibronectin fragment CH296, which contains integrin α4β1-binding site. Adherent cells then were harvested by cells dissociation buffer (Gibco, Carlsbad, Calif.), and further plated in CFU assay. […]

For assay [3], the system named is WASP. Briefly: phosphorylation of WASP in 32D progenitors. The assay is classed as cell-based, murine. To be noted: FIG. 7D. The text has this:
FIG. 7D. CASIN treatment in 32 progenitors led to dampened phosphorylation of WASP, […].

Assay [4] concerns C57Bl/6 mice. The experiment in a line: mobilization of colony-forming progenitors to peripheral blood, CFU-C assay. The assay is classed as in vivo. Conditions: intraperitoneal 2.4 mg/Kg, 40 hrs post administration, in comparison to vehicle control. As for the experimental part: Whether CASIN administration can induce mobilization of HSC/Ps to peripheral blood of C57Bl/6 mice, mimicking the phenotype observed in Cdc42 conditional knockout mice, was evaluated. First of all, mobilization of hematopoietic progenitor cells was examined by CFU-C assays functionally (FIG. 3a). […] Secondarily, to further explore the ability of CASIN to mobilize LT-HSC which is crucial for long-term repopulation of the mobilized cells, serial transplantations were carried out, where 20 million PB from CASIN-mobilized C57Bl/6 mice was transplanted into primary recipient of NOD/SCID mice, and subsequent secondary and tertiary transplants were finished as well using prior BMs (FIG. 3c). Donor chimerisms were assessed by using H2K^b congenic marker which is positive for donors of C57Bl/6 strain and negative for recipients of NOD/SCID strain. […] Therefore, the studies show CASIN can efficiently mobilize colony-forming hematopoietic progenitors and LT-HSCs with self-renewal and multi-lineage differentiation capacity. Thirdly, to further investigate the potential of CASIN to vacate the BM niche after mobilization, six-color staining of the BM cells was performed from C57Bl/6 mice with or without CASIN treatment followed by FACS analysis. […] Therefore, a transient decrease in BM and a concomitant increase in peripheral organs of HSCs would be beneficial to facilitating the subsequent HSC transplantation.
To determinate the hematopoietic progenitor content in the PB of mobilized C57Bl/6 mice, colony-forming unit assay was performed as described previously. Briefly, 200 ul PB was plated in triplicate into methylcellulose (MethocultM3434; StemCell Technology, Vancouver, BC, Canada). Colonies were then counted 7 d later.

The subject of assay [5] is human CD34^+ umbilical cord blood cells. Briefly: flow cytometry of F-actin polymerization in human CD34+ HCB cells. The assay is classed as cell-based. To be noted: human CD34^+ HCBs, SDF-1α induced. The protocol:
FIG. 4A. SDF-1α induced F-actin polymerization over time without or with gradient CASIN treatment, determined by MFI using FACS analysis.
To begin to study potential utility of CASIN in human hematopoietic stem cell mobilization, a series of cellular assays were carried out to determine the effects on human CD34^+ umbilical cord blood cells (HCBs). […] The effects of CASIN on human hematopoietic cell mobilization was therefore tested using a well established preclinical in vivo model (NOD/SCID-Hcb) of human hematopoietic function, where fresh CD34^+ hCB cells were transplanted into sub-lethally irradiated NOD/SCIDs by intrafemoral injection, and repopulated and maintained human hematopoietic reconstitution in the bone marrow of NOD/SCID recipient mice (FIG. 9b, FIG. 11) (Larochelle, A. et al. Nat Med 2, 1329-1337 (1996); Bhatia, M., et al. Proc Natl Acad Sci USA 94, 5320-5325 (1997)). Intravenous injections of CASIN were applied when human cells were well engrafted in the NOD/SCID recipients.

Sequence of Cdc42 (P60766 1-188 limits assumed): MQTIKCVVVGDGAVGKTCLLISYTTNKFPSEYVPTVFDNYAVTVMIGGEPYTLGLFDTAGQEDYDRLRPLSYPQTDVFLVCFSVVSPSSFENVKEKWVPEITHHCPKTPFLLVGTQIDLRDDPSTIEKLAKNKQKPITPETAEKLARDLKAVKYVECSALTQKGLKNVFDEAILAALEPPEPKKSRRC

As for `OCCNC1CCCc2c1[nH]c1ccc(-c3ccccc3)cc21` (stereo not drawn) [CASIN], in assay [1], the “activity of Cdc42” value is “specifically inhibit the activity of Cdc42 in a dose-dependent manner” and the “recovery of Cdc42 activity after wash” value is given as “recovers 3 h after CASIN is washed away”. Besides, the “directional migration capacity of Cdc42^−/− cells” value in assay [2] is on record as “did not affect”. Also, in assay [3], the “phosphorylation of WASP” value is on record as “dampened”. In assay [4], the “mobilization of colony-forming progenitors to the peripheral blood” value is on record as “more than six-fold”. Besides, the F-actin polymerization result in assay [5] is on record as “inhibited F-actin polymerization of these human progenitors dose-dependently”.

(Values after patent US9433663B2, “Mobilization of hematopoietic stem cells” (Children's Hospital Medical Center, priority 2008, dated 2016).)
